Laboratory results from PubChem BioAssay (NCI).
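48-hour exposure; five concentrations; linearly interpolated endpoints. At the TGI there is no net growth.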

Columns and labels:
Assay in all cases: NCI-60 cell line screen, 48 h
UACC-62 melanoma = test system: UACC-62 melanoma
BT-549 breast = test system: BT-549 breast
PC-3 prostate = test system: PC-3 prostate
SNB-75 CNS = test system: SNB-75 CNS
KM12 colon = test system: KM12 colon
HL-60(TB) leukemia = test system: HL-60(TB) leukemia
SF-295 CNS = test system: SF-295 CNS
UACC-257 melanoma = test system: UACC-257 melanoma
MDA-MB-231 breast = test system: MDA-MB-231 breast
OVCAR-8 ovarian = test system: OVCAR-8 ovarian
MDA-N = test system: MDA-N
UO-31 renal = test system: UO-31 renal
CAKI-1 renal = test system: CAKI-1 renal
MALME-3M melanoma = test system: MALME-3M melanoma
HT29 colon = test system: HT29 colon
NCI/ADR-RES ovarian = test system: NCI/ADR-RES ovarian
K-562 leukemia = test system: K-562 leukemia
A498 renal = test system: A498 renal
SK-MEL-28 melanoma = test system: SK-MEL-28 melanoma
ACHN renal = test system: ACHN renal
NCI-H226 lung = test system: NCI-H226 lung
HCC-2998 colon = test system: HCC-2998 colon
MDA-MB-435 = test system: MDA-MB-435
786-0 renal = test system: 786-0 renal
OVCAR-4 ovarian = test system: OVCAR-4 ovarian
SW-620 colon = test system: SW-620 colon
EKVX NSCLC = test system: EKVX NSCLC
SF-539 CNS = test system: SF-539 CNS
RXF 393 renal = test system: RXF 393 renal
SF-268 CNS = test system: SF-268 CNS
HCT-15 colon = test system: HCT-15 colon
HOP-62 NSCLC = test system: HOP-62 NSCLC
SK-OV-3 ovarian = test system: SK-OV-3 ovarian
COLO 205 colon = test system: COLO 205 colon
HS 578T breast = test system: HS 578T breast
RPMI-8226 leukemia = test system: RPMI-8226 leukemia
SK-MEL-2 melanoma = test system: SK-MEL-2 melanoma
SK-MEL-5 melanoma = test system: SK-MEL-5 melanoma
A549 NSCLC = test system: A549 NSCLC
SN12C renal = test system: SN12C renal
DU-145 prostate = test system: DU-145 prostate
SR leukemia = test system: SR leukemia
U251 CNS = test system: U251 CNS
M14 melanoma = test system: M14 melanoma
T-47D breast = test system: T-47D breast
OVCAR-3 ovarian = test system: OVCAR-3 ovarian
MOLT-4 leukemia = test system: MOLT-4 leukemia
MCF7 breast = test system: MCF7 breast
SNB-19 CNS = test system: SNB-19 CNS
NCI-H23 lung = test system: NCI-H23 lung
HCT-116 colon = test system: HCT-116 colon
TK-10 renal = test system: TK-10 renal
IGROV1 ovarian = test system: IGROV1 ovarian
NCI-H522 lung = test system: NCI-H522 lung
OVCAR-5 ovarian = test system: OVCAR-5 ovarian
NCI-H460 lung = test system: NCI-H460 lung
LOX IMVI melanoma = test system: LOX IMVI melanoma
CCRF-CEM leukemia = test system: CCRF-CEM leukemia

Cc1ccc(O)c(C(c2cccc(C(c3cc(C)ccc3O)c3cc(C)ccc3O)c2)c2cc(C)ccc2O)c1
TGI (UACC-62 melanoma): 3.51 µM
TGI (BT-549 breast): 4.11 µM
TGI (PC-3 prostate): 3.29 µM
TGI (SNB-75 CNS): 3.54 µM
TGI (KM12 colon): 3.23 µM
TGI (HL-60(TB) leukemia): 5.31 µM
TGI (SF-295 CNS): 3.91 µM
TGI (UACC-257 melanoma): 3.86 µM
TGI (MDA-MB-231 breast): 2.83 µM
TGI (OVCAR-8 ovarian): 3.87 µM
TGI (MDA-N): 3.35 µM
TGI (UO-31 renal): 3.34 µM
TGI (CAKI-1 renal): 3.04 µM
TGI (MALME-3M melanoma): 3.77 µM
TGI (HT29 colon): 3.16 µM
TGI (NCI/ADR-RES ovarian): 7.66 µM
TGI (K-562 leukemia): 3.37 µM
TGI (A498 renal): 2.97 µM
TGI (SK-MEL-28 melanoma): 3.46 µM
TGI (ACHN renal): 3.13 µM
TGI (NCI-H226 lung): 3.31 µM
TGI (HCC-2998 colon): 3.48 µM
TGI (MDA-MB-435): 3.26 µM
TGI (786-0 renal): 3.18 µM
TGI (OVCAR-4 ovarian): 3.73 µM
TGI (SW-620 colon): 3.2 µM
TGI (EKVX NSCLC): 3.63 µM
TGI (SF-539 CNS): 3.35 µM
TGI (RXF 393 renal): 3.2 µM
TGI (SF-268 CNS): 3.33 µM
TGI (HCT-15 colon): 3.31 µM
TGI (HOP-62 NSCLC): 4.04 µM
TGI (SK-OV-3 ovarian): 3.42 µM
TGI (COLO 205 colon): 2.47 µM
TGI (HS 578T breast): 4.01 µM
TGI (RPMI-8226 leukemia): 3.31 µM
TGI (SK-MEL-2 melanoma): 4.61 µM
TGI (SK-MEL-5 melanoma): 3.93 µM
TGI (A549 NSCLC): 4 µM
TGI (SN12C renal): 3.4 µM
TGI (DU-145 prostate): 2.84 µM
TGI (SR leukemia): 7.55 µM
TGI (U251 CNS): 3.32 µM
TGI (M14 melanoma): 3.45 µM
TGI (T-47D breast): 4.45 µM
TGI (OVCAR-3 ovarian): 4.35 µM
TGI (MOLT-4 leukemia): 18.8 µM
TGI (MCF7 breast): 3.18 µM
TGI (SNB-19 CNS): 3.34 µM
TGI (NCI-H23 lung): 3.18 µM
TGI (HCT-116 colon): 3.34 µM
TGI (TK-10 renal): 3.25 µM
TGI (IGROV1 ovarian): 3.02 µM
TGI (NCI-H522 lung): 3.03 µM
TGI (OVCAR-5 ovarian): 3.15 µM

C=CCN(c1cc(OC)c(NC(C)=O)cc1[N+](=O)[O-])S(C)(=O)=O
TGI (UACC-62 melanoma): > 100 µM
TGI (BT-549 breast): > 100 µM
TGI (PC-3 prostate): > 100 µM
TGI (SNB-75 CNS): > 100 µM
TGI (KM12 colon): > 100 µM
TGI (HL-60(TB) leukemia): > 100 µM
TGI (SF-295 CNS): > 100 µM
TGI (NCI-H460 lung): > 100 µM
TGI (UACC-257 melanoma): > 100 µM
TGI (MDA-MB-231 breast): > 100 µM
TGI (OVCAR-8 ovarian): > 100 µM
TGI (MDA-N): > 100 µM
TGI (UO-31 renal): > 100 µM
TGI (CAKI-1 renal): > 100 µM
TGI (MALME-3M melanoma): 68.5 µM
TGI (LOX IMVI melanoma): > 100 µM
TGI (NCI/ADR-RES ovarian): > 100 µM
TGI (K-562 leukemia): > 100 µM
TGI (A498 renal): > 100 µM
TGI (SK-MEL-28 melanoma): > 100 µM
TGI (ACHN renal): > 100 µM
TGI (NCI-H226 lung): > 100 µM
TGI (HCC-2998 colon): > 100 µM
TGI (MDA-MB-435): > 100 µM
TGI (786-0 renal): > 100 µM
TGI (OVCAR-4 ovarian): > 100 µM
TGI (SW-620 colon): > 100 µM
TGI (EKVX NSCLC): > 100 µM
TGI (RXF 393 renal): > 100 µM
TGI (SF-268 CNS): > 100 µM
TGI (HCT-15 colon): > 100 µM
TGI (HOP-62 NSCLC): > 100 µM
TGI (SK-OV-3 ovarian): > 100 µM
TGI (COLO 205 colon): > 100 µM
TGI (HS 578T breast): > 100 µM
TGI (RPMI-8226 leukemia): > 100 µM
TGI (SK-MEL-2 melanoma): > 100 µM
TGI (SK-MEL-5 melanoma): > 100 µM
TGI (A549 NSCLC): > 100 µM
TGI (SN12C renal): > 100 µM
TGI (DU-145 prostate): > 100 µM
TGI (SR leukemia): > 100 µM
TGI (U251 CNS): > 100 µM
TGI (M14 melanoma): > 100 µM
TGI (T-47D breast): > 100 µM
TGI (OVCAR-3 ovarian): > 100 µM
TGI (MOLT-4 leukemia): > 100 µM
TGI (MCF7 breast): > 100 µM
TGI (SNB-19 CNS): > 100 µM
TGI (NCI-H23 lung): > 100 µM
TGI (HCT-116 colon): > 100 µM
TGI (TK-10 renal): > 100 µM
TGI (IGROV1 ovarian): > 100 µM
TGI (NCI-H522 lung): 12.5 µM
TGI (CCRF-CEM leukemia): > 100 µM
TGI (OVCAR-5 ovarian): > 100 µM
